Reference: article PMC9230590, “Pharmacokinetics and Tissue Distribution of Enavogliflozin in Mice and Rats” (Pharmaceutics, 2022)
Values joined by “and” are separate entries in the source; they are usually repeats but may differ in a detail not shown here. Identical values can stand only once. Like-named read-outs stand apart in the source and are kept apart here.

Tests used:
hepatocytes = tested on: hepatocytes; set-up: method as in PMID 32932946; details: dog hepatocytes; cited from earlier work
[1] = Recovery from urine and feces over 72 h in mice; type: in vivo, ICR mice; details: for Recovery, Feces / Recovery, Urine: parent form
Method: Three mice received enavogliflozin (1 mg/kg) intravenously and were returned to metabolic cages with food and water ad libitum and urine and feces samples were collected every 24 h for 72 h. Urine and feces were weighed, and 30 µL aliquots of urine and 50 µL aliquots of 10% feces homogenates were stored at −80 °C until enavogliflozin analysis. Four mice received enavogliflozin (1 mg/kg) by oral gavage and were returned to their metabolic cages to collect urine and feces samples every 24 h for 72 h with the same protocols described above.
(§1) Concentrations of enavogliflozin in plasma and tissue homogenate samples were analyzed using an Agilent 6430 triple quadrupole liquid chromatography-mass spectrometry (LC–MS/MS) system (Agilent, Wilmington, DE, USA) following a previously published method.
Aliquots of plasma or urine (30 µL each) and tissue homogenate (50 µL each) were added to 100 µL of aqueous solution of d4-enavogliflozin (IS, 20 ng/mL), and vigorously mixed with 500 µL MTBE for 15 min. After centrifugation at 16,000× g for 5 min, samples were kept for 1 h, at a temperature of −80 °C to freeze the aqueous layer freeze. The organic upper layer was then transferred to a clean tube and evaporated to dryness under a gentle stream of nitrogen. The dried extract was reconstituted in 150 µL of mobile phase, and a 3 µL aliquot was injected into the LC–MS/MS system. Enavogliflozin was separated on a Synergi Polar RP column (2.0 × 150 mm, 4 µm particle size; Phenomenex, Torrence, CA, USA) using a isocratic mobile phase consisting of water (15%) and methanol (85%) containing 0.1% formic acid at a flow rate of 0.25 mL/min.

[2] = Pharmacokinetics after oral administration in rats; type: in vivo, Sprague Dawley (SD) rats; details: for AUC∞/D / Cmax/D: dose normalized; for Cmax/D: in (ng/mL)/(mg/kg); for AUC(0-t) / AUC(0-inf) / Cmax / half-life / MRT / Tmax / bioavailability: rat, plasma; for bioavailability: po
Method: Rats were fasted with water ad libitum for at least 12 h before the oral administration of enavogliflozin. Eighteen rats were randomly divided into three groups (n = 6 per each group) and administered the drug dissolved in a mixture of 10% DMSO and 90% saline at doses of 0.3, 1, and 3 mg/kg by oral gavage. Blood samples were collected at 0, 0.083, 0.25, 0.5, 1, 2, 4, 6, 8, and 24 h with the same procedures described above.
as §1
The data were expressed as the means ± standard deviation for the groups. Pharmacokinetic parameters, such as the area under the plasma concentration–time curve during the period of observation (AUClast), AUC to infinite time (AUC∞), clearance (CL), and volume of distribution at steady-state (Vd,ss), the terminal half-life (t1/2), and mean residence time (MRT) were calculated using non-compartment analysis with WinNonlin software (version 5.1; Pharsights, Cary, NC, USA). The AUC ratios were calculated by dividing the AUClast of enavogliflozin in the tissue samples by the plasma AUClast values of enavogliflozin [15].

[3] = set-up: method as in PMID 32183468; details: mice; cited from earlier work

For `OC[C@H]1O[C@@H](c2cc(Cc3ccc(C4CC4)cc3)c(Cl)c3c2CCO3)[C@H](O)[C@@H](O)[C@@H]1O` [enavogliflozin, (2S,3R,4R,5S,6R)-2-(7-chloro-6-(4-cyclopropylbenzyl) -2,3-dihydrobenzofuran-4-yl)-6-(hydroxymethyl)tetrahydro-2H-pyran-3,4,5-triol], the “In vitro hepatic clearance” value (hepatocytes) is given as 1.07 L/h/kg, the “Recovery in feces relative to urine” value ([1]; 1 mg/kg IV) is given as “about 6 fold” and the “Recovery, Feces” value ([1]; 1 mg/kg IV, 0–24 h, 1 mg/kg) is given as 36.3 % of Dose and 36.3 ± 3.6 % of Dose. For the same compound, the “Recovery, Urine” value ([1]; 1 mg/kg IV, 0–24 h, 1 mg/kg) was 6.3 % of Dose and 6.3 ± 0.8 % of Dose, the “Recovery, Feces” value ([1]; 1 mg/kg IV, 0–72 h, 1 mg/kg) was 39.3 ± 3.5 % of Dose and 39.3 % of Dose and the “Recovery, Urine” value ([1]; 1 mg/kg IV, 0–72 h, 1 mg/kg) was 6.6 ± 0.7 % of Dose and 6.6 % of Dose. For the same compound, the “Recovery, Feces” value ([1]; 1 mg/kg IV, 24–48 h) was 2.7 ± 1.3 % of Dose, the “Recovery, Urine” value ([1]; 1 mg/kg IV, 24–48 h) was 0.1 ± 0.0 % of Dose and the “Recovery, Feces” value ([1]; 1 mg/kg IV, 48–72 h) was 0.4 ± 0.1 % of Dose. For the same compound, the “Recovery, Feces” value ([1]; 1 mg/kg PO, 0–24 h) was 50.6 ± 11.1 % of Dose, the “Recovery, Urine” value ([1]; 1 mg/kg PO, 0–24 h) was 6.6 ± 0.6 % of Dose and the “Recovery, Urine” value ([1]; 1 mg/kg PO, 0–72 h) was 6.8 ± 0.6 % of Dose. The “Recovery, Feces” value ([1]; 1 mg/kg PO, 0–72 h, 1 mg/kg) was 51.4 % of Dose and 51.4 ± 11.5 % of Dose, the “Recovery, Feces” value ([1]; 1 mg/kg PO, 24–48 h) was 0.72 ± 0.4 % of Dose and the “Recovery, Urine” value ([1]; 1 mg/kg PO, 24–48 h) was 0.1 ± 0.0 % of Dose. For the same compound, the “Recovery, Feces” value ([1]; 1 mg/kg PO, 48–72 h) was 0.2 ± 0.1 % of Dose, the dose excreted ([1]; ICR, mouse, urine and feces, 1 mg/kg IV, 72 h, read-out: total recovery (feces + urine)) was roughly 46% and the “AUC∞/D” value ([2]; PO 0.3 mg/kg) was 1757.6 ± 643.4. For the same compound, the Cmax/D ([2]; PO 0.3 mg/kg) was 171.2 ± 49.9, the “AUC∞/D” value ([2]; PO 1 mg/kg) was 1649.3 ± 483.4 and the Cmax/D ([2]; PO 1 mg/kg) was 183.0 ± 95.6. For the same compound, the “AUC∞/D” value ([2]; PO 3 mg/kg) was 1385.4 ± 361.8, the Cmax/D ([2]; PO 3 mg/kg) was 100.2 ± 36.1 and the AUC(0-t) ([2]; Sprague Dawley, PO 0.3 mg/kg) was 0.489 ± 0.192 µg·h/mL. For the same compound, the AUC(0-t) ([2]; Sprague Dawley, PO 1 mg/kg) was 1.35 ± 0.565 µg·h/mL, the AUC(0-inf) ([2]; Sprague-Dawley, PO 0.3 mg/kg) was 0.527 ± 0.193 µg·h/mL and the Cmax ([2]; Sprague-Dawley, PO 0.3 mg/kg) was 0.0513 ± 0.015 µg/mL. It also gave a half-life ([2]; Sprague-Dawley, PO 0.3 mg/kg) of 6.3 ± 2.3 h, an AUC(0-inf) ([2]; Sprague-Dawley, PO 1 mg/kg) of 1.65 ± 0.483 µg·h/mL and a Cmax ([2]; Sprague-Dawley, PO 1 mg/kg) of 0.183 ± 0.0956 µg/mL. It also gave a half-life ([2]; Sprague-Dawley, PO 1 mg/kg) of 6.9 ± 2.1 h, an AUC(0-inf) ([2]; Sprague-Dawley, PO 3 mg/kg) of 4.16 ± 1.09 µg·h/mL and an AUC(0-t) ([2]; Sprague-Dawley, PO 3 mg/kg) of 3.25 ± 0.573 µg·h/mL. It also gave a Cmax ([2]; Sprague-Dawley, PO 3 mg/kg) of 0.301 ± 0.108 µg/mL, a half-life ([2]; Sprague-Dawley, PO 3 mg/kg) of 10.3 ± 7.5 h and an MRT ([2]; Sprague-Dawley, PO 0.3 mg/kg) of 8.5 ± 3.2 h. It also gave a Tmax ([2]; Sprague-Dawley, PO 0.3 mg/kg) of 2.5 ± 2.4 h, an MRT ([2]; Sprague-Dawley, PO 1 mg/kg) of 9.9 ± 3.6 h and a Tmax ([2]; Sprague-Dawley, PO 1 mg/kg) of 2.5 ± 2.5 h. The MRT ([2]; Sprague-Dawley, PO 3 mg/kg) was 14.9 ± 10.6 h, the Tmax ([2]; Sprague-Dawley, PO 3 mg/kg) was 2.9 ± 2.1 h and the bioavailability ([2]; Sprague-Dawley, 0.3 mg/kg, PO 0.3 mg/kg, AUC∞,PO / AUC∞,IV, read-out: BA (absolute bioavailability)) was 62.1%. For the same compound, the bioavailability ([2]; Sprague-Dawley, 1 mg/kg, PO 1 mg/kg, AUC∞,PO / AUC∞,IV, read-out: BA (absolute bioavailability)) was 58.9%, the bioavailability ([2]; Sprague-Dawley, 3 mg/kg, PO 3 mg/kg, AUC∞,PO / AUC∞,IV, read-out: BA (absolute bioavailability)) was 56.3% and the bioavailability ([2]; Sprague-Dawley, 3 mg/kg, range over doses 0.3, 1 and 3 mg/kg, read-out: Oral bioavailability) was 56.3 to 62.1%. The “ratio of AUC in kidney to AUC in plasma” value [3] was 85.0 ± 16.1.
